ChEMBL document CHEMBL1811840, “p-hydroxyacetophenone amides from Cystobacter ferrugineus, strain Cb G35” (J Nat Prod, 2011)
Calls of active or inactive are those of the source. The calls are words filed in the database; no cut-off is given here.

Experiments:
[1] = system: Rhodotorula glutinis; assay: Antimicrobial activity against Rhodotorula glutinis at 100 ug/mL after 24 hrs by serial dilution method; assay type: functional, organism-based
[2] = system: Micrococcus luteus; assay: Antimicrobial activity against Micrococcus luteus at 100 ug/mL after 24 hrs by serial dilution method; assay type: functional, organism-based
[3] = system: Wickerhamomyces anomalus; assay: Antimicrobial activity against Pichia anomala at 100 ug/mL after 24 hrs by serial dilution method; assay type: functional, organism-based
[4] = system: Botryococcus braunii; assay: Antimicrobial activity against Botryococcus braunii at 0.8 to 100 ug/mL by serial dilution method; assay type: functional
[5] = system: Staphylococcus aureus; assay: Antimicrobial activity against Staphylococcus aureus at 100 ug/mL after 24 hrs by serial dilution method; assay type: functional, organism-based
[6] = system: Mucor hiemalis; assay: Antimicrobial activity against Mucor hiemalis at 100 ug/mL by serial dilution method; assay type: functional, organism-based
[7] = system: Pseudococcomyxa simplex; assay: Antimicrobial activity against Pseudococcomyxa simplex at 0.8 to 100 ug/mL by serial dilution method; assay type: functional
[8] = system: Schizosaccharomyces pombe; assay: Antimicrobial activity against Schizosaccharomyces pombe at 100 ug/mL after 24 hrs by serial dilution method; assay type: functional, organism-based
[9] = system: Chromobacterium violaceum; assay: Antimicrobial activity against Chromobacterium violaceum at 100 ug/mL after 24 hrs by serial dilution method; assay type: functional, organism-based
[10] = system: Chlamydomonas; assay: Antimicrobial activity against Chlamydomonas sp. at 0.8 to 100 ug/mL by serial dilution method; assay type: functional
[11] = system: Nocardia; assay: Antimicrobial activity against Nocardia flava at 100 ug/mL after 24 hrs by serial dilution method; assay type: functional
[12] = system: U-937; assay: Cytotoxicity against human U937 cells up to 100 ug/mL by WST-1 assay; assay type: functional, cell-based
[13] = system: Bracteacoccus; assay: Antimicrobial activity against Bracteacoccus sp. at 0.8 to 100 ug/mL by serial dilution method; assay type: functional
[14] = system: Candida albicans; assay: Antimicrobial activity against Candida albicans at 100 ug/mL after 24 hrs by serial dilution method; assay type: functional, organism-based
[15] = system: Scenedesmus bajacalifornicus; assay: Antimicrobial activity against Scenedesmus bajacalifornicus at 0.8 to 100 ug/mL by serial dilution method; assay type: functional; conditions: Tetradesmus bajacalifornicus
[16] = system: Escherichia coli; assay: Antimicrobial activity against Escherichia coli at 100 ug/mL after 24 hrs by serial dilution method; assay type: functional, organism-based
[17] = system: Pseudococcomyxa simplex; assay: Antimicrobial activity against Pseudococcomyxa simplex at 100 ug/mL by serial dilution method; assay type: functional

SMILES | growth inhibition (GI) [1] | growth inhibition (GI) [2] | growth inhibition (GI) [3] | growth inhibition (GI) [4] | growth inhibition (GI) [5] | growth inhibition (GI) [6] | growth inhibition (GI) [7] | growth inhibition (GI) [8] | growth inhibition (GI) [9] | growth inhibition (GI) [10] | growth inhibition (GI) [11] | Activity [12] | growth inhibition (GI) [13] | growth inhibition (GI) [14] | growth inhibition (GI) [15] | growth inhibition (GI) [16] | growth inhibition (GI) [17]
CCCCCC(=O)NCC(=O)c1ccc(O)cc1 | inactive | inactive | inactive | inactive | inactive | inactive | inactive | inactive | inactive | inactive | inactive | inactive | inactive | inactive | inactive | inactive | –
CCCC(=O)NCC(=O)c1ccc(O)cc1 | inactive | inactive | inactive | inactive | inactive | inactive | inactive | inactive | inactive | inactive | inactive | inactive | inactive | inactive | inactive | inactive | –
CC(C)CC(=O)N/C=C/c1ccc(O)cc1 | inactive | inactive | inactive | inactive | inactive | inactive | – | inactive | inactive | inactive | inactive | inactive | inactive | inactive | inactive | inactive | Active
CC(C)CC(=O)NCC(=O)c1ccc(O)cc1 | inactive | inactive | inactive | inactive | inactive | inactive | inactive | inactive | inactive | inactive | inactive | inactive | inactive | inactive | inactive | inactive | –
CC(C)CCC(=O)NCC(=O)c1ccc(O)cc1 | inactive | inactive | inactive | inactive | inactive | inactive | inactive | inactive | inactive | inactive | inactive | inactive | inactive | inactive | inactive | inactive | –
CC(=O)NCC(=O)c1ccc(O)cc1 | inactive | inactive | inactive | inactive | inactive | inactive | inactive | inactive | inactive | inactive | inactive | inactive | inactive | inactive | inactive | inactive | –
